Measurements from ChEMBL document CHEMBL6134923, “Novel Tricyclic Compounds as GSK3 Inhibitors” (ACS Med Chem Lett, 2025).

What was measured:
[1] = target: Glycogen synthase kinase-3 beta (Homo sapiens, UniProt P49841); experiment: Inhibition of N-terminal GST-tagged full-length recombinant human GSK-3beta extracted from baculovirus infected Sf9 cells using biotinylated-phosphorylated glycogen synthase incubated for 100 mins in presence of ATP by TR-FRET assay
[2] = target: Glycogen synthase kinase-3 alpha (Homo sapiens, UniProt P49840); experiment: Inhibition of N-terminal GST-tagged full-length recombinant human GSK-3alpha extracted from baculovirus infected Sf9 cells using biotinylated-phosphorylated glycogen synthase incubated for 100 mins in presence of ATP by TR-FRET assay
Glycogen synthase kinase-3 alpha, sequence (P49840 whole entry): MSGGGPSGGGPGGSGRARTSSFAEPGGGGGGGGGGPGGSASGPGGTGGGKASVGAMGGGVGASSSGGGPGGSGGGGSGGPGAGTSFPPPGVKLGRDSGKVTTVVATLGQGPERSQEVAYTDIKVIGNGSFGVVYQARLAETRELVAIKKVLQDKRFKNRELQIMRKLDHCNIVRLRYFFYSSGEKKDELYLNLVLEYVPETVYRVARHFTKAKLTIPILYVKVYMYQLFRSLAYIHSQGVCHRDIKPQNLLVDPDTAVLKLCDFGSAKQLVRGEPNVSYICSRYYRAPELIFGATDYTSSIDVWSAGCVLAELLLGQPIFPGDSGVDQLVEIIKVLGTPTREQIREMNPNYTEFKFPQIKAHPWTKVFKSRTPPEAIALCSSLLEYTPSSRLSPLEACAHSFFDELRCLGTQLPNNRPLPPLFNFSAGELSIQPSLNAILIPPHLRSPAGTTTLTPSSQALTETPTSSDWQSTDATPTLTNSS

Glycogen synthase kinase-3 beta, sequence (P49841 whole entry): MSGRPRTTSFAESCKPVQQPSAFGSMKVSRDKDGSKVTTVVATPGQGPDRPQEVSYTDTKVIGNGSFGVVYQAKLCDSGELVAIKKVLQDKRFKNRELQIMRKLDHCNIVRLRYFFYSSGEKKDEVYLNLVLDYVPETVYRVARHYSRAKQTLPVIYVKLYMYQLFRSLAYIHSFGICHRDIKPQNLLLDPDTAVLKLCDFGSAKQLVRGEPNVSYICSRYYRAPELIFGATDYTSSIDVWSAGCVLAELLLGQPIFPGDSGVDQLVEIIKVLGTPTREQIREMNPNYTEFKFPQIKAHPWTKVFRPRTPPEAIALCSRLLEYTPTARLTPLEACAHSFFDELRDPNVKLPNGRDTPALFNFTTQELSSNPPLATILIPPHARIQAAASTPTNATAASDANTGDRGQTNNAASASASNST

| SMILES | IC50 [1] [nM] | IC50 [2] [nM] |
| --- | --- | --- |
| CC[C@@]1(c2cccc(S(=O)(=O)C3CC3)c2)C2=C(CC(C)(C)CC2=O)Nc2n[nH]c(C(F)(F)F)c21 | ≤ 100 | ≤ 100 |
| CC[C@@]1(c2cccc(-c3cncn3C)c2)C2=C(CC(C)(C)NC2=O)Nc2n[nH]c(C(F)(F)F)c21 | ≤ 100 | ≤ 100 |
| CC[C@@]1(c2cccc(C(F)(F)F)c2)C2=C(Nc3n[nH]cc31)[C@H](F)C(C)(C)CC2=O | ≤ 100 | ≤ 100 |

Results, then the compound that gave them:

| IC50 [1] [nM] | IC50 [2] [nM] | SMILES |
| --- | --- | --- |
| ≤ 100 | ≤ 100 | CC[C@]1(c2cccc(OC(C)C)c2)C2=C(CC(C)(C)CC2=O)Nc2n[nH]c(C(F)(F)F)c21 |
| > 1000 | > 100 | CCC1(c2cccc(N3CC4CCC(C4)C3)c2)C2=C(CC(C)(C)CC2=O)Nc2n[nH]cc21 (configuration not stated) |
| > 100 | > 100 | CC[C@@]1(c2cccc(-c3cc(C)ncc3C)c2)C2=C(CC(C)(C)CC2=O)Nc2n[nH]c(C(F)(F)F)c21 |
